Experimental data reported in patent US6451802B1, “S-oxide lipid lowering compounds” (Janssen Pharmaceutica N.V., priority 1998, dated 2002).

What was measured:
HepG2 cells = experiment: Quantification of the secretion of ApoB in HepG2 cells; format: cell-based; settings: 24 hours of incubation, calculated by non-linear regression analysis
Description: HepG2 cells were cultured in 24-well plates in MEM Rega 3 containing 10% fetal calf serum. At 70% confluency, the medium was changed and the test compound or carrier (DMSO, 0.4% final concentration) was added. After 24 hours of incubation, the medium was transferred to Eppendorf tubes and cleared by centrifugation. A sheep antibody directed against either apoB was added to the supernatant and the mixture was kept at 8° C. for 24 hours. Then, rabbit anti-sheep antibody was added and the immune complex was allowed to precipitate for 24 hours at 8° C. The immunoprecipitate was pelleted by centrifugation for 25 min at 1320 g and washed twice with a buffer containing 40 mM Mops, 40 mM NaH2PO4, 100 mM NaF, 0.2 mM DTT, 5 mM EDTA, 5 mM EGTA, 1% Triton-X-100, 0.5% sodium deoxycholate (DOC), 0.1% SDS, 0.2 μM leupeptin and 0.2 μM PMSF. Radioactivity in the pellet was quantified by liquid scintillation counting. Resulting IC50 values are enumerated in Table C. 1.

Dog MTP = target: T1, Dog MTP (Canis lupus familiaris, UniProt A0A8I3S8Z7); experiment: MTP assay (triglyceride transfer from donor to acceptor vesicles); format: biochemical; settings: drug concentration that corresponds with 50% of control values
T1 sequence (A0A8I3S8Z7 18-893): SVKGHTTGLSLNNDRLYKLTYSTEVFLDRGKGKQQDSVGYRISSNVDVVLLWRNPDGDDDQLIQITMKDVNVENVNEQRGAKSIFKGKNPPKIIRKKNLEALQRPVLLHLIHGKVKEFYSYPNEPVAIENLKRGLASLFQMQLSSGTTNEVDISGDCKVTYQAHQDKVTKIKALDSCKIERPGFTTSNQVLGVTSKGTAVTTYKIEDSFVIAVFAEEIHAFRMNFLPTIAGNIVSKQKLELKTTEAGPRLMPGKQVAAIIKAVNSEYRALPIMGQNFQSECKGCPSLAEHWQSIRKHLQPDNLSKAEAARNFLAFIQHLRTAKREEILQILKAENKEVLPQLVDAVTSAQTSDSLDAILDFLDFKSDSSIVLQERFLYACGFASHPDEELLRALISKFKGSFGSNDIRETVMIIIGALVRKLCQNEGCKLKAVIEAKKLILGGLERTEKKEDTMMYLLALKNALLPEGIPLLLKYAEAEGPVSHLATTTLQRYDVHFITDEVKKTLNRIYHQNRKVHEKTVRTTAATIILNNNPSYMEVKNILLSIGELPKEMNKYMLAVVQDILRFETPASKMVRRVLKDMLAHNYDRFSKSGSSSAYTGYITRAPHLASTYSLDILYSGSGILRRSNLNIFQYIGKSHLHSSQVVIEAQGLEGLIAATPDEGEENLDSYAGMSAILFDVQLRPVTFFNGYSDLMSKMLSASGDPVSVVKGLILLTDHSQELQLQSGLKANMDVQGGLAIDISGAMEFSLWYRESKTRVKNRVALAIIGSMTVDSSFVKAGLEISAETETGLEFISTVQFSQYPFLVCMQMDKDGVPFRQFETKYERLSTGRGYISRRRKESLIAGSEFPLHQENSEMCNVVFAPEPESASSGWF
Description: MTP activity was measured using an assay similar to one described by J. R. Wetterau and D. B. Zilversmit in Chemistry and Physics of Lipids, 38, 205-222 (1985). To prepare the donor and acceptor vesicles, the appropriate lipids in chloroform were put into a glass test tube and dried under a stream of N2. A buffer containing 15 mM Tris-HCl pH 7.5, 1 mM EDTA, 40 mM NaCl, 0.02% NaN3 (assay buffer) was added to the dried lipid. The mixture was vortexed briefly and the lipids were then allowed to hydrate for 20 min on ice. Vesicles were then prepared by bath sonication (Branson 2200) at room temperature for maximum 15 min. Butylated hydroxytoluene was included in all vesicle preparations at a concentration of 0.1%. The lipid transfer assay mixture contained donor vesicles (40 nmol phosphatidylcholine, 7.5 mol % of cardiolipin and 0.25 mol % glycerol tri [1-^14C]-oleate), acceptor vesicles (240 nmol phosphatidylcholine) and 5 mg BSA in a total volume of 675 μl in a 1.5 ml microcentrifuge tube. Test compounds were added dissolved in DMSO (0.13% final concentration). After 5 minutes of pre-incubation at 37° C., the reaction was started by the addition of MTP in 100 μl dialysis buffer. The reaction was stopped by the addition of 400 μl DEAE-52 cellulose pre-equilibrated in 15 mM Tris-HCI pH 7.5, 1 mM EDTA, 0.02% NaN3 (1:1, vol/vol). The mixture was agitated for 4 min and centrifuged for 2 min at maximum speed in an Eppendorf centrifuge (4° C.) to pellet the DEAE-52-bound donor vesicles. An aliquot of the supernatant containing the acceptor liposomes was counted and the [^14C]-counts were used to calculate the percent triglyceride transfer from donor to acceptor vesicles. Resulting IC50 values are enumerated in Table C.1.

[1] = Plasma levels in a clinical trial on human volunteers; format: in vivo; settings: for share of the total AUC, compounds 1, 2 and 3 together: one value for the three compounds combined
Description: Plasma levels of compounds 1, 2 and 3 and of compound A have been measured in a clinical trial on human volunteers.

[2] = human volunteers, single 200 mg dose administration of compound A

| IC50 (HepG2 cells; Homo sapiens, HepG2, 24 h) | IC50 (Dog MTP) | clearance compared with compound A ([1]; human volunteers) | share of the total AUC, compounds 1, 2 and 3 together [1, 2] | IC50 (HepG2 cells) | share of the total AUC (Area Under the Curve) [1, 2] | metabolisation on passing the liver (first-pass) ([1]; human, in vivo) | SMILES |
| --- | --- | --- | --- | --- | --- | --- | --- |
| 0.061 µM | 0.0062 µM | slower than clearance of compound A | 92% |  |  |  | CCC(C)n1ncn(-c2ccc(N3CCN(c4ccc(OC[C@@H]5CO[C@@](CS(=O)(=O)c6nncn6C)(c6ccc(Cl)cc6)O5)cc4)CC3)cc2)c1=O (relative stereo) [Compound 1, [2S-[2α,4α(S*)]]-4-[4-[4-[4-[[2-(4-chloropheny)-2-[[(4-methyl-4H-1,2,4-triazol-3-yl)sulfonyl]methyl]-1,3-dioxlan-4-yl]methoxy]phenyl]-1-piperazinyl]phenyl]-2,4-dihydro-2-(1-methylpropyl)-3H-1,2,4-triazol-3-one] |
|  | 0.118 µM | slower than clearance of compound A | 92% | 0.93 µM |  |  | CCC(C)n1ncn(-c2ccc(N3CCN(c4ccc(OCC5COC(C[S+]([O-])c6nncn6C)(c6ccc(Cl)cc6)O5)cc4)CC3)cc2)c1=O (single isomer, unassigned) [Compound 2] |
|  | 0.011 µM | slower than clearance of compound A | 92% | 0.094 µM |  |  | CCC(C)n1ncn(-c2ccc(N3CCN(c4ccc(OCC5COC(C[S+]([O-])c6nncn6C)(c6ccc(Cl)cc6)O5)cc4)CC3)cc2)c1=O (single isomer, unassigned) [Compound 3, [2S-[2α(B),4α(S*)]]-4-[4-[4-[4-[[2-(4-chlorophenyl)-2-[[(4-methyl-4H-1,2,4-traizol-3yl]sulfinyl]methyl]-1,3-dioxolan-4-yl]methoxy]phenyl]-1-piperazinyl]Phenyl-2,4-dihydro-2-(1-methylpropyl)-3H-1,2,4-traizol-3-one] |
| 0.025 µM | 0.0076 µM |  |  |  | 8% | extensive metabolisation | CC[C@@H](C)n1ncn(-c2ccc(N3CCN(c4ccc(OC[C@@H]5CO[C@@](CSc6nncn6C)(c6ccc(Cl)cc6)O5)cc4)CC3)cc2)c1=O [compound A, (−)-[2S-[2α,4α(S*)]]-4-[4-[4-[4-[[-2-(4-chlorophenyl)-2-[[(4-methyl-4H-1,2,4-triazol-3-yl)thio]methyl]-1,3-dioxolan-4-yl]methoxy]phenyl]-1-piperazinyl]phenyl]-2,4-dihydro-2-(1-methylpropyl)-3H-1,2,4-triazol-3-one, reference compound] |
